In patent US8183228B2, “Anticoagulant antithrombotic dual inhibitors comprising a biotin label” (MSD OSS B.V. Netherlands, priority 2005, dated 2012):
Where a name gives a salt, the structure may show the parent alone. Read-outs that look alike come from different tables or passages of the source.

Key:
[1] = system: factor Xa; assay: Anti-factor Xa activity in human plasma (amidolytic, S2222); format: biochemical; details: against calibration curve of standard heparin
Method: 1.3 In Vitro Test for Determination of the Anti-Factor Xa Activity in Human Plasma
The anti-factor Xa activity of the tested compounds in human plasma were measured amidolytically with S2222 (Chromogenix, Chromogenics Ltd, Molndal, Sweden) using the method described by Teien and Lie. (Teien A N, Lie M. Evaluation of an amidolytic heparin assay method increased sensitivity by adding purified antithrombin III. Thromb. Res. 1977, 10: 399-410). The anti-Xa activity is expressed in U/μmol after comparison of the amidolytic activity with a calibration curve of standard heparin.

[2] = system: human platelet rich plasma; assay: Inhibition of human platelet aggregation induced by ADP (PRP); format: cell-based
Method: The final concentration is 0.38% sodium citrate.
The optical density (OD620) is then measured at 620 nm. […] This is to verify the stability of the platelets (absence of spontaneous platelet aggregation). […] Between two measurements, the plate is shaking for 40 seconds at 1,000 rpm. Each test compound is investigated in at least 2 experiments using PRP from different volunteers.
The mean OD at each compound concentration (including vehicle) is calculated at t=0 min and t=10 min. The percentage inhibition at each concentration is calculated using the formula: […]

[3] = system: washed human platelets; assay: Inhibition of human platelet aggregation induced by TRAP (washed platelets); format: cell-based
Method: This aggregation can be determined by measuring the optical density of the WPL. The in vitro test described here is used to analyze the activity of a test compound to inhibit TRAP-induced aggregation of human platelets.
Between two measurements, the plate is shaking for 40 seconds at 1,000 rpm.

[4] = Pharmacokinetics after s.c. administration in rat (plasma anti-Xa activity); format: in vivo; details: for Tmax / AUC(0-inf) / Cmax / half-life: male, Wistar, plasma, sc; for half-life: read-out: T½ eli (converted); for pharmacokinetic behavior in rats (comparison): within the variability of the experiment
Method: The pharmacokinetic properties of compounds 10, 12, 17 and 27 were studied in male Wistar rats of 300-400 gr. The rats were anaesthetized by inhalation of a mixture of O2N2O/isoflurane, after which the right jugular vein was cannulated. The next day rats were treated s.c. with doses of 100 or 500 nmol/kg. After s.c. administration, blood was sampled at several time intervals. Then the blood was centrifuged after which the plasma was siphoned off and stored at −20° C. until use. The concentration of the tested compound was measured amidolytically with S2222 (Chromogenix, Chromogenics Ltd, Molndal, Sweden) by determination of the anti-Xa activity based on the method of Teien and Lie in the obtained plasma samples against a calibration curve which was made of the stock solution of the tested compound itself. (Teien A N, Lie M. Evaluation of an amidolytic heparin assay method increased sensitivity by adding purified antithrombin III. Thromb. Res. 1977, 10: 399-410). The concentration in the samples was expressed in nmol/mL and the kinetic parameters were calculated with the noncompartment model of WinNonlin. (FIGS. 6 and 7)

[5] = Pharmacokinetics - neutralization experiment with avidin i.v. in rat; format: in vivo; details: for level at time molar at 24 h: plasma, sc, before avidin, read-out: Plasma level T = 24 h; for level at time molar at 24 h / Plasma level T = 26 h / % reduction of plasma concentration: s.c. 500 nmol/kg; for Plasma level T = 26 h: 2 hours after avidin 10 mg/kg i.v. at t = 24 h; for % reduction of plasma concentration: within 2 hours after avidin 10 mg/kg i.v. at t = 24 h, sodium salt
Method: 3.2 Pharmacokinetics—Neutralization Experiment:
Rats were treated with compound 10, 12, or 27 at a dose of 100 nmol/kg s.c. At t=1 h, a blood sample was taken and 10 mg/kg of Avidin (from egg white, Sigma) was administered i.v. to the rats treated with compound 10 or 12. Blood was sampled at 0.5-1-3-6 and 23 hours subsequently. The blood was treated as described in the pharmacokinetic experiment and the concentration of the samples was determined by measuring the (residual) anti-Xa activity. (FIG. 8)
In a separate experiment compound 10, 17 or 26 was administered at a dose of 500 nmol/kg s.c. after which blood was collected at 24 hours. Then 10 mg/kg avidin was administered intravenously and blood was collected at 25 and 26 hours. (FIG. 9)

[6] = system: collagen induced platelet aggregation; assay: In vivo neutralization: collagen induced platelet aggregation (thrombocytopenia) model; details: guinea pig; for neutralization of the platelet inhibitory activity by avidin: avidin 10 mg/kg just prior to collagen infusion
Method: 4. In Vivo Neutralization of the Antithrombotic Activity
An intravascular infusion of a collagen suspension induces platelet aggregation and causes transient thrombocytopenia in rats. This test is used to evaluate the influence of a test compound on the severity of thrombocytopenia induced by collagen in rats.
In the first experiment male guinea pigs were s.c. treated with compound 10 at a dose of 75 nmol/kg or vehicle at 4 hours before collagen infusion. In a second experiment compounds 12 and 17 were s.c. administered at a dose of 100 nmol/kg at the same time-point. Male guinea pigs were anaesthetized by i.m. administration of Ketamine+Sedamun (90+10 mg/kg, respectively). After 15 minutes one of the common carotid arteries was dissected free and cannulated with a PE 50 cannula (Clay Adams). Two blood samples of 0.5 mL were collected in plastic vials containing 25 μL 0.20 M Na2EDTA solution. The cannula was then connected to a syringe containing 0.25 mg/mL collagen suspension (Hormon Chemie, Munich, West Germany, diluted with isotonic buffer of pH 2.8). This suspension was administered via an infusion of 225 μL during 30 seconds. Then the syringe was disconnected and 2 blood samples of 0.5 mL were taken at 85 and 95 seconds after the start of the collagen infusion. Then the animals were killed with euthasate after which the number of platelets per sample were counted with a Sysmex blood cell counter model KX-21. In case avidin was used, 10 mg/kg of avidin was i.v. administered at t=4 h after s.c. administration of compound 10, 12 or 17 after which collagen was infused within 5 minutes.
After counting the number of platelets in the collected blood samples the decreased number of platelets is calculated by dividing the mean platelet number of the blood samples obtained at t=85 and 95 seconds by the mean value of the blood samples obtained at t=0. The test was carried out with n=4.

[7] = s.c. 100 nmol/kg, avidin 10 mg/kg i.v.
[8] = 75 nmol/kg s.c., + avidin 10 mg/kg i.v. at t = 4 h
[9] = 75 nmol/kg s.c., without avidin
[10] = 100 nmol/kg s.c., + avidin 10 mg/kg i.v. at t = 4 h
[11] = 100 nmol/kg s.c., without avidin

SMILES	Anti-Xa U/μmol Human plasma pH 7.4 [1]	IC50 [2]	IC50 [3]	pharmacokinetic behavior in rats (comparison) [4]	level at time molar at 24 h [5]	neutralization by avidin of (residual) anti-Xa activity / pharmacokinetic behavior [5, 7]	Plasma level T = 26 h [5]	% reduction of plasma concentration [5]	neutralization of the platelet inhibitory activity by avidin [6]	Tmax ([4]; 100 nmol/kg)	AUC(0-inf) ([4]; 100 nmol/kg, mean ± s.e.m.)	Cmax ([4]; 100 nmol/kg, mean ± s.e.m.)	half-life ([4]; 100 nmol/kg, mean ± s.e.m.)	% inhibition [6, 10]	% remaining platelets [6, 10]	No. of platelets t = 0 [6, 10]	No. of platelets t = 90 sec [6, 10]	% remaining platelets [6, 11]	No. of platelets t = 0 [6, 11]	No. of platelets t = 90 sec [6, 11]	further results
CO[C@H]1O[C@H](COS(=O)(=O)O)[C@@H](O[C@@H]2O[C@@H](C(=O)O)[C@@H](O[C@H]3O[C@H](COS(=O)(=O)O)[C@@H](O[C@@H]4O[C@H](C(=O)O)[C@@H](O[C@H]5O[C@H](COS(=O)(=O)O)[C@@H](OCCOCCOCCOCCNC(=O)[C@H](CCCCNC(=O)CCCC[C@@H]6SC[C@@H]7NC(=O)N[C@@H]76)NC(=O)COCCOCCOCCOCCNC(=O)c6cccc(S(=O)(=O)N[C@@H](Cc7ccc(OCCCCC8CCNCC8)cc7)C(=O)O)c6)[C@H](OC)[C@H]5OC)[C@H](OC)[C@H]4OC)[C@H](OS(=O)(=O)O)[C@H]3OS(=O)(=O)O)[C@H](OC)[C@H]2OC)[C@H](OS(=O)(=O)O)[C@H]1OS(=O)(=O)O [Compound 10, sodium salt]	927 U/μmol	74 nM	72 nM	same pharmacokinetic behavior	733 ± 33 nM	can be neutralized	185 ± 45 nM	75%	immediate and quantitative neutralization	–	–	–	–	–	–	–	–	–	–	–	Cl ([4]; 500 nmol/kg, mean ± s.e.m.): 0.11 ± 0.005 mL/min/kg; Vz ([4]; 500 nmol/kg, mean ± s.e.m.): 0.103 ± 0.009 L/kg; Tmax ([4]; 500 nmol/kg): 1.3 h; AUC(0-inf) ([4]; 500 nmol/kg, mean ± s.e.m.): 76.2 ± 2.8 µM·h; Cmax ([4]; 500 nmol/kg, mean ± s.e.m.): 4500 ± 400 nM; half-life ([4]; 500 nmol/kg, mean ± s.e.m.): 10.7 ± 1.5 h; Cl in comparison to compound 12 [5, 7]: strongly increased; overall AUCinf in comparison to compound 12 [5, 7]: strongly reduced; overall T1/2 eli in comparison to compound 12 [5, 7]: strongly reduced; No. of platelets t = 0 ([6]; 75 nmol/kg s.c., 4 h before collagen, without avidin): 386 ± 31; % inhibition ([6]; 75 nmol/kg s.c., 4 hours after administration, without avidin, sodium salt): 76 ± 4%; % inhibition [6, 8]: 2 ± 13%; % remaining platelets [6, 8]: 40.4 ± 7.8%; No. of platelets t = 0 [6, 8]: 384 ± 20; No. of platelets t = 90 sec [6, 8]: 152 ± 26; % remaining platelets [6, 9]: 85.3 ± 2.5%; No. of platelets t = 90 sec [6, 9]: 328 ± 18
CO[C@H]1O[C@H](COS(=O)(=O)O)[C@@H](O[C@@H]2O[C@@H](C(=O)O)[C@@H](O[C@H]3O[C@H](COS(=O)(=O)O)[C@@H](O[C@@H]4O[C@H](C(=O)O)[C@@H](O[C@H]5O[C@H](COS(=O)(=O)O)[C@@H](OCCOCCOCCOCCNC(=O)[C@H](CCCCNC(=O)C[C@H](NC(=O)CCCC[C@@H]6SC[C@@H]7NC(=O)N[C@@H]76)C(=O)O)NC(=O)COCCOCCOCCOCCNC(=O)c6cccc(S(=O)(=O)N[C@@H](Cc7ccc(OCCCCC8CCNCC8)cc7)C(=O)O)c6)[C@H](OC)[C@H]5OC)[C@H](OC)[C@H]4OC)[C@H](OS(=O)(=O)O)[C@H]3OS(=O)(=O)O)[C@H](OC)[C@H]2OC)[C@H](OS(=O)(=O)O)[C@H]1OS(=O)(=O)O [Compound 17, sodium salt]	1411 U/μmol	49 nM	74 nM	same pharmacokinetic behavior	666 ± 93 nM	–	112 ± 35 nM	83%	immediate and quantitative neutralization	1.7 h	15.9 ± 0.9 µM·h	1240 ± 10 nM	10.4 ± 0.5 h	−5 ± 15%	46.5 ± 7.8%	367 ± 16	181 ± 12	82.5 ± 2.0%	424 ± 11	348 ± 7	–
CO[C@H]1O[C@H](COS(=O)(=O)O)[C@@H](O[C@@H]2O[C@@H](C(=O)O)[C@@H](O[C@H]3O[C@H](COS(=O)(=O)O)[C@@H](O[C@@H]4O[C@H](C(=O)O)[C@@H](O[C@H]5O[C@H](COS(=O)(=O)O)[C@@H](OCCOCCOCCOCCNC(=O)COCCOCCOCCOCCNC(=O)c6cccc(S(=O)(=O)N[C@@H](Cc7ccc(OCCCCC8CCNCC8)cc7)C(=O)O)c6)[C@H](OC)[C@H]5OC)[C@H](OC)[C@H]4OC)[C@H](OS(=O)(=O)O)[C@H]3OS(=O)(=O)O)[C@H](OC)[C@H]2OC)[C@H](OS(=O)(=O)O)[C@H]1OS(=O)(=O)O [Compound 12, sodium salt, reference compound]	1392 U/μmol	92 nM	65 nM	same pharmacokinetic behavior	–	not affected	–	–	not	1.3 h	16.8 ± 0.5 µM·h	1260 ± 20 nM	9.8 ± 0.4 h	74 ± 3%	86.5 ± 1.7%	379 ± 6	329 ± 11	84.5 ± 2.2%	426 ± 6	360 ± 7	% inhibition ([6]; 100 nmol/kg s.c., 4 hours after administration, without avidin, sodium salt): 70 ± 4%
